In patent publication US7241763B2, “3-furanyl analogs of toxoflavine as kinase inhibitors” (priority 2002, dated 2007):

What was measured:
A2780 cell = assay: Cytotox/survival of A2780 cell after 3 days; format: cell-based; details: Homo sapiens, 72 h; A2780 ovarian carcinoma cell line, 3 days; read-out: Cytotox/survival of A2780 cell after 3 days - pIC50 values (converted)
Protocol: In an alternative assay, the growth inhibitory effect of the compounds was tested on the ovarian carcinoma cell line A2780 using art known cytotoxicity assays such as LIVE/DEAD (Molecular Probes) or MTT.

AKT3 [1] = target: T1, AKT3 (Homo sapiens, UniProt Q9Y243); assay: In vitro inhibition of AKT3 using a filter assay (AKT3 pep., Ex. C3); format: biochemical; details: histone H2B substrate, filter assay, 25° C. 3 hrs; read-out: AKT3 pep. (Ex. C3): pIC50 values (converted)
T1 sequence (Q9Y243 whole entry): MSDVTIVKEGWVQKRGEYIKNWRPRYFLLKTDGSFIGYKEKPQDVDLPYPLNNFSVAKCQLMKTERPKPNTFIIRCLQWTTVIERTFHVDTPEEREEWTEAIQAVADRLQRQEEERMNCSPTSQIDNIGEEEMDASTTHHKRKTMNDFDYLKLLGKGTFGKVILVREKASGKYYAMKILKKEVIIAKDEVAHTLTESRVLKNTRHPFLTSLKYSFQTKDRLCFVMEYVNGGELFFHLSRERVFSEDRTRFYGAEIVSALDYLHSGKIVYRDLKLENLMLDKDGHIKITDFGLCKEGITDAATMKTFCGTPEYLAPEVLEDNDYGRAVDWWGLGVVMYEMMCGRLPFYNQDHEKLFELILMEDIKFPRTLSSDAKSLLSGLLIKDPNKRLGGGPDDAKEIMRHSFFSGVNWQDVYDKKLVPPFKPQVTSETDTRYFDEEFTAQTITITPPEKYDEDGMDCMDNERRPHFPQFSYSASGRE
Protocol: In Vitro Inhibition of AKT3 using a Filter Assay
In the present AKT3 filter assay, a kinase substrate consisting of a fragment of histone H2B, is incubated with the aforementioned protein in the presence of (^33P) radiolabeled ATP. The (^33P)phosporylated substrate binds to a phosphocellulose cation exchange filter, that can easily be removed from the incubation mixture and counted using a microplate scintillation counter.
AKT3 filter assays were performed at 25° C. for 3 hrs in the presence of 25 mM Hepes, pH 7.0, containing 15 mM MgCl2, 1 mM DTT Each assay was performed in a 100 μl reaction volume containing 111 nM AKT3 (diluted in 25 mM Hepes, pH 7.0, containing 15 mM MgCl2, 1 mM DTT) and the 2.5 μM Histone H2B and 2 nM ATP-P^32. The reaction was terminated by addition of 100 μl 75 mM H3PO4, 90 μl of the assay mixture was filtered through Phosphocellulose cation exchange paper. After five times washing with […] H3PO4, the filterpaper was counting in a microtiterplate scintillation counter.

CDC25B = target: T2, CDC25B (Homo sapiens, UniProt P30305); assay: In vitro inhibition of CDC25B using the fluorogenic substrate 3-OMFP (CDC25B WT, Ex. C5); format: biochemical; details: 3-OMFP substrate, 1 hour room temperature; read-out: CDC25B WT (Ex. C5): pIC50 values (converted)
T2 sequence (P30305 1-580): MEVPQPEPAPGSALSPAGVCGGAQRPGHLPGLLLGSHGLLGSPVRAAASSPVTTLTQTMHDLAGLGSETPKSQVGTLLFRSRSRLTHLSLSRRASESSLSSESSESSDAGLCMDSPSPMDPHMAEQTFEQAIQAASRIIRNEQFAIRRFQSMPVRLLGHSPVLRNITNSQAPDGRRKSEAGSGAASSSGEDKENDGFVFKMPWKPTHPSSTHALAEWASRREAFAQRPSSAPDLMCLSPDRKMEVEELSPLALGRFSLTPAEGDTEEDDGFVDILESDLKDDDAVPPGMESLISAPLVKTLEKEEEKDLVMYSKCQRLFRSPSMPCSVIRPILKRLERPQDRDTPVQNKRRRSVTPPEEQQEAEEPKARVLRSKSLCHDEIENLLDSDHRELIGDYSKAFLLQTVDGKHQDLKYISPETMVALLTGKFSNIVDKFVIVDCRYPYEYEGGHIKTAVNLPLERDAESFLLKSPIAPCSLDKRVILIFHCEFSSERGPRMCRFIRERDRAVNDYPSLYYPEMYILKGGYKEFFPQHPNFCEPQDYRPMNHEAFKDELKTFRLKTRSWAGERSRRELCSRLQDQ
Protocol: In Vitro Inhibition of CDC25B using the Fluorogenic Substrate 3-OMFP
CDC25B phosphatase activity is assessed using the fluorogenic substrate 3-O-methyl-flurorescein-phosphate (3-OMFP). The phosphatase-reaction is performed for 1 hour at room temperature in a black microtiter plate in a volume of 50 μl. The reaction mixture contains 4 μg/mlCDC25B, 15 μM (3-OMFP), 15 mM Tris, 50 mM NaCl, 1 mM DTT, 1 mM Na2EDTA at pH 8.0 and 0.1% DMSO solution at 10^−5 M and the hits are tested in the same conditions in a full dose/response from 10^−5, 3.10^−6, 10^−6 and 3.10^−7 M. The enzymatic activity is determined by measuring the fluorescent signal at 485 nm (ex.) and 538 (em.).

AKT3 [2] = target: T1, AKT3; assay: Cellular inhibition of AKT3 using an ELISA (AKT cel, Ex. C6); format: cell-based; design: endogenous in cells; host or cells: MDA-MB 231; details: MDA-MB 231 cells, phosphorylated MAPK ELISA, 30 minutes with compound; read-out: AKT cel (Ex. C6): pIC50 values (converted)
Protocol: Cellular Inhibition of AKT3 using an ELISA
The human breast adenocarcinoma cell line (MDA-MB 231) was used in an phosphospecific antibody cell ELISA (PACE) to assess the inhibitory effect of the compounds on AKT3 mediated phosphorylation of mitogen-activated protein kinase (MAPK). In the experiments the MDA-MB 231 cells were serum starved for 24 hours (5% CO2; 37° C.). Subsequently, the cells are incubated at room temperature for 2 hours with 20 μM (in serum free medium) of the phosphatidylinositol 3-kinase inhibitor Ly294002 (Alexis, San Diego, Calif.) prior to the incubation for 30 minutes with the compounds at a final concentration ranging from 1 nM to 3 μM. After fixation (with 4.5% formaldehyde) for 20 minutes and washing with PBS (0.1M) the cells were successively incubated with for 5 minutes with 0.1% Triton X-100 in PBS, for 20 minutes with 0.6% H2O2 and 1 hour with a 2% BSA solution as blocking buffer. […] The OD (490–655 nm) reflected the amount of phosphorylated MAPK and the pIC50 of the compounds was based on their effect with respect to blanco (0.1% DMSO) or an internal reference compound treatment.

cdk4 = cdk4 (Homo sapiens, UniProt P11802); assay: In vitro inhibition of cdk4 using a scintillant proximity assay (CDK4 SPA, Ex. C1); format: biochemical; details: GST-pRb substrate, 33P-ATP, room temperature 30 minutes; read-out: CDK4 SPA (Ex. C1): pIC50 values (converted)
cdk4, sequence (P11802 whole entry): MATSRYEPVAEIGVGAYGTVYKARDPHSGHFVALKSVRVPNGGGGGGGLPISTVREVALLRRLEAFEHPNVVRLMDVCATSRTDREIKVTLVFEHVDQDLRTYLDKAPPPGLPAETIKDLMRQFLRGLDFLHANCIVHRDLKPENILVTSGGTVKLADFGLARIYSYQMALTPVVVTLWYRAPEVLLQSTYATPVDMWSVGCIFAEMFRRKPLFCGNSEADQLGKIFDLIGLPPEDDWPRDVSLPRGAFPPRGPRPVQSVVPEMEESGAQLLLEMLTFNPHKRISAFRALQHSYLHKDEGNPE
cdk4, sequence (P24385 whole entry partner): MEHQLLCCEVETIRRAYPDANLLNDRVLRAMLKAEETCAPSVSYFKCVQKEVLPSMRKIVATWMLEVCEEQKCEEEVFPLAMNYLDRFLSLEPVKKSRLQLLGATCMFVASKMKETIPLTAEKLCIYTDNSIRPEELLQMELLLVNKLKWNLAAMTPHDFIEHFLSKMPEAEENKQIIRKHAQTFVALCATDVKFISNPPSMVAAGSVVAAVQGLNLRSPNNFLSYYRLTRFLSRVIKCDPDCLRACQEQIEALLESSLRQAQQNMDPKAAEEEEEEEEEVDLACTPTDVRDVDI
Protocol: In Vitro Inhibition of cdk4 using a Scintillant Proximity Assay
The scintillant proximity assay (SPA) is in general described in U.S. Pat. No. 4,568,649 (Amersham Pharmacia Biotech). In the present cdk4 SPA kinase reaction assay, a kinase substrate consisting of a fragment of the restinoblastoma protein (pRb) tagged with […] (GST), is incubated with the aforementioned protein in the presence of (^33P) radiolabeled ATP. (^33P) phosporylation of the substrate is subsequently measured as light energy emitted using glutathione-coated SPA beads (Amersham Pharmacia Biotech) by trapping and quantifying the binding of the GST tagged and radiolabeled restinoblastoma protein.
The CDK4 SPA kinase reaction is performed at room temperature for 30 minutes in a 96-well microtiter plate. For each of the tested compounds a full dose response —10^−5M to 3.10^−9M—has been performed. Flavopiridol was used as reference compound. The 100 μl reaction volume contains 50 mM Hepes, 10 mM NaF, 10 mM MgCl2, 1 mM Na3VO4 pH 7.5, 1.5 μg CDK4-cell lysate/well, 0.2 μM unlabeled ATP, 1.7 μg/well GST-pRb, 1.7 nM AT^33P and 1 μl of a DMSO solution. The reaction is stopped by diluting the reaction mixture ½ with 0.1 mM Na2EDTA, 0.1 mM non-labeled ATP, 0.05% Triton-X-100 and 10 mg/ml glutathion coated beads in PBS. The microtiterplates are centrifuges at 900 rpm for 10 minutes and the amount of phosphorylated (^33P) pRb is determined by counting (1 min/well) in a microtiterplate scintillation counter.

| SMILES | IC50 (A2780 cell) [nM] | IC50 (AKT3 [1]) [nM] | IC50 (CDC25B) [nM] | IC50 (AKT3 [2]) [nM] | melting point [°C] | IC50 (cdk4) [nM] |
| --- | --- | --- | --- | --- | --- | --- |
| CC(C)n1nc(-c2ccc(-c3ccc(CN(C)CCO)cc3)o2)nc2c(=O)n(C)c(=O)nc1-2 [Compound 87] | 61.4 | 72.9 | 24.3 | 35.2 | 229 | 80.7 |
| CN1CCN(C(=O)COc2ccc(-c3ccc(-c4nc5c(=O)n(C)c(=O)nc-5n(C5CCCC5)n4)o3)cc2)CC1 [Compound 119] | 48.1 | 54 | 17.6 | 470 | 252 | 129 |
| Cn1c(=O)nc2n(C3CCCC3)nc(-c3ccc(-c4ccc(CNCc5cccnc5)cc4)o3)nc-2c1=O [Compound 122] | 70.5 | 30.9 | 14 | 123 | 205 | 91 |
| Cn1c(=O)nc2n(C3CCCC3)nc(-c3ccc(-c4ccc(CN5CCCC5)cc4)o3)nc-2c1=O [Compound 131] | 61.7 | 91.4 | 18.6 | 71.8 | 218 | 51.9 |
| Cn1c(=O)nc2n(C3CCCC3)nc(-c3ccc(-c4ccc(CN5CCN(CCOCCO)CC5)cc4)o3)nc-2c1=O [Compound 121] | 137 | 57.3 | 12 | 406 | > 250 | 161 |
| Cn1c(=O)nc2n(C3CCCC3)nc(-c3ccc(-c4ccc(CNC(CO)(CO)CO)cc4)o3)nc-2c1=O [Compound 126] | 1110 | 80.2 | 93.8 | 272 | 241 | 78.3 |
| Cn1c(=O)nc2n(C3CCCC3)nc(-c3ccc(-c4ccc(CN(CCO)CCO)cc4)o3)nc-2c1=O [Compound 134] | 52.7 | 59.8 | 12.9 | 39.2 | 242 | 111 |
| Cn1c(=O)nc2n(C3CCCC3)nc(-c3ccc(-c4ccc(CO)cc4)o3)nc-2c1=O [Compound 31] | 74 | 44.3 | 13.8 | 277 | 182 | 137 |
| COCCN1CCN(Cc2ccc(-c3ccc(-c4nc5c(=O)n(C)c(=O)nc-5n(C5CCCC5)n4)o3)cc2)CC1 [Compound 133] | 119 | 61 | 11.6 | 67.8 | 186 | 112 |
